Assay results published in PubChem BioAssay AID2060893 (Molecular Pharmacology Branch, DTP, NCI, 2025).

Tested on: K86415-001-R-J1-PDC complex spheroids, viability
Test: Anticancer human tumor K86415-001-R-J1-PDC patient-derived lung adenocarcinoma cell line growth inhibition [RAS]
Details: for IC50: curve of first compound; for viability, T/C: stronger effect = lower value
Outline: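 Multi-cell-type spheroids: tumor cells plus HUVEC endothelial cells and mesenchymal stem cells. RAS-pathway inhibitors were combined with targeted agents, each dosed in half-log steps down from clinical Cmax, or from 10 microM when Cmax was unknown.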

[1] = second compound 0.000949 µM, first compound 0.00316 µM
[2] = second compound 0.000949 µM, first compound 0.01 µM
[3] = second compound 0.000949 µM, first compound 0.0316 µM
[4] = second compound 0.000949 µM, first compound 0.1 µM
[5] = second compound 0.000949 µM, first compound 0.316 µM
[6] = second compound 0.000949 µM, first compound 1 µM
[7] = second compound 0.003 µM, first compound 0.00316 µM
[8] = second compound 0.003 µM, first compound 0.01 µM
[9] = second compound 0.003 µM, first compound 0.0316 µM
[10] = second compound 0.003 µM, first compound 0.1 µM
[11] = second compound 0.003 µM, first compound 0.316 µM
[12] = second compound 0.003 µM, first compound 1 µM
[13] = second compound 0.00949 µM, first compound 0.00316 µM
[14] = second compound 0.00949 µM, first compound 0.01 µM
[15] = second compound 0.00949 µM, first compound 0.0316 µM
[16] = second compound 0.00949 µM, first compound 0.1 µM
[17] = second compound 0.00949 µM, first compound 0.316 µM
[18] = second compound 0.00949 µM, first compound 1 µM
[19] = second compound 0.03 µM, first compound 0.00316 µM
[20] = second compound 0.03 µM, first compound 0.01 µM
[21] = second compound 0.03 µM, first compound 0.0316 µM
[22] = second compound 0.03 µM, first compound 0.1 µM
[23] = second compound 0.03 µM, first compound 0.316 µM
[24] = second compound 0.03 µM, first compound 1 µM
[25] = second compound 0.0949 µM, first compound 0.00316 µM
[26] = second compound 0.0949 µM, first compound 0.01 µM
[27] = second compound 0.0949 µM, first compound 0.0316 µM
[28] = second compound 0.0949 µM, first compound 0.1 µM
[29] = second compound 0.0949 µM, first compound 0.316 µM
[30] = second compound 0.0949 µM, first compound 1 µM
[31] = second compound 0.3 µM, first compound 0.00316 µM
[32] = second compound 0.3 µM, first compound 0.01 µM
[33] = second compound 0.3 µM, first compound 0.0316 µM
[34] = second compound 0.3 µM, first compound 0.1 µM
[35] = second compound 0.3 µM, first compound 0.316 µM
[36] = second compound 0.3 µM, first compound 1 µM
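Note: spheroids exposed to agents for seven days before readout.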

C=CC(=O)Nc1cc(Nc2nccc(-c3cn(C)c4ccccc34)n2)c(OC)cc1N(C)CCN(C)C + CCn1c(-c2cccnc2C(C)OC)c2c3cc(ccc31)N1CCOC(CC(NC(=O)C(C(C)C)N(C)C(=O)C3(F)CCN(C(=O)C#CC(C)(C)N(C)C)CC3)C(=O)N3CCCC(N3)C(=O)OCC(C)(C)C2)C1
IC50 (second compound 0.000949 µM): < 3.16 nM
IC50 (second compound 0.003 µM): < 3.16 nM
IC50 (second compound 0.00949 µM): < 3.16 nM
IC50 (second compound 0.03 µM): < 3.16 nM
IC50 (second compound 0.0949 µM): < 3.16 nM
IC50 (second compound 0.3 µM): < 3.16 nM
viability, T/C [1]: 34.5%
viability, T/C [2]: 31.8%
viability, T/C [3]: 17%
viability, T/C [4]: 25.6%
viability, T/C [5]: 18.3%
viability, T/C [6]: 9.09%
viability, T/C [7]: 14.9%
viability, T/C [8]: 11.9%
viability, T/C [9]: 10.1%
viability, T/C [10]: 8.82%
viability, T/C [11]: 6.15%
viability, T/C [12]: 5.63%
viability, T/C [13]: 11.9%
viability, T/C [14]: 11.1%
viability, T/C [15]: 11.4%
viability, T/C [16]: 7.32%
viability, T/C [17]: 5.35%
viability, T/C [18]: 5.16%
viability, T/C [19]: 10.2%
viability, T/C [20]: 11.1%
viability, T/C [21]: 9.36%
viability, T/C [22]: 8.38%
viability, T/C [23]: 5.05%
viability, T/C [24]: 4.02%
viability, T/C [25]: 12.5%
viability, T/C [26]: 11.2%
viability, T/C [27]: 10.2%
viability, T/C [28]: 8.51%
viability, T/C [29]: 5.53%
viability, T/C [30]: 5.3%
viability, T/C [31]: 13.1%
viability, T/C [32]: 11.4%
viability, T/C [33]: 11.9%
viability, T/C [34]: 5.28%
viability, T/C [35]: 5.37%
viability, T/C [36]: 4.83%

CC(C)n1nc(-c2ccc3oc(N)nc3c2)c2c(N)ncnc21 + C#Cc1c(F)ccc2cc(O)cc(-c3ncc4c(N5CC6CCC(C5)N6)nc(OCC56CCCN5CC(F)C6)nc4c3F)c12
IC50 (second compound 0.0316 µM): 50 nM
IC50 (second compound 0.1 µM): 48.8 nM
IC50 (second compound 0.316 µM): 57.1 nM
IC50 (second compound 1 µM): 59 nM
IC50 (second compound 3.16 µM): < 0.316 nM
IC50 (second compound 10 µM): < 0.316 nM
viability, T/C (second compound 0.0316 µM, first compound 0.000316 µM): 96.9%
viability, T/C (second compound 0.0316 µM, first compound 0.001 µM): 105%
viability, T/C (second compound 0.0316 µM, first compound 0.00316 µM): 105%
viability, T/C (second compound 0.0316 µM, first compound 0.01 µM): 89.2%
viability, T/C (second compound 0.0316 µM, first compound 0.0316 µM): 63.5%
viability, T/C (second compound 0.0316 µM, first compound 0.1 µM): 30.3%
viability, T/C (second compound 0.1 µM, first compound 0.000316 µM): 99.6%
viability, T/C (second compound 0.1 µM, first compound 0.001 µM): 120%
viability, T/C (second compound 0.1 µM, first compound 0.00316 µM): 102%
viability, T/C (second compound 0.1 µM, first compound 0.01 µM): 96.5%
viability, T/C (second compound 0.1 µM, first compound 0.0316 µM): 62.4%
viability, T/C (second compound 0.1 µM, first compound 0.1 µM): 29.3%
viability, T/C (second compound 0.316 µM, first compound 0.000316 µM): 95.2%
viability, T/C (second compound 0.316 µM, first compound 0.001 µM): 94.7%
viability, T/C (second compound 0.316 µM, first compound 0.00316 µM): 92.3%
viability, T/C (second compound 0.316 µM, first compound 0.01 µM): 96.5%
viability, T/C (second compound 0.316 µM, first compound 0.0316 µM): 67.5%
viability, T/C (second compound 0.316 µM, first compound 0.1 µM): 33.4%
viability, T/C (second compound 1 µM, first compound 0.000316 µM): 68.8%
viability, T/C (second compound 1 µM, first compound 0.001 µM): 70.6%
viability, T/C (second compound 1 µM, first compound 0.00316 µM): 68.1%
viability, T/C (second compound 1 µM, first compound 0.01 µM): 83%
viability, T/C (second compound 1 µM, first compound 0.0316 µM): 70%
viability, T/C (second compound 1 µM, first compound 0.1 µM): 32.4%
viability, T/C (second compound 3.16 µM, first compound 0.000316 µM): 35.4%
viability, T/C (second compound 3.16 µM, first compound 0.001 µM): 40.3%
viability, T/C (second compound 3.16 µM, first compound 0.00316 µM): 38.2%
viability, T/C (second compound 3.16 µM, first compound 0.01 µM): 44.5%
viability, T/C (second compound 3.16 µM, first compound 0.0316 µM): 52.3%
viability, T/C (second compound 3.16 µM, first compound 0.1 µM): 28.5%
viability, T/C (second compound 10 µM, first compound 0.000316 µM): 15.9%
viability, T/C (second compound 10 µM, first compound 0.001 µM): 17.6%
viability, T/C (second compound 10 µM, first compound 0.00316 µM): 15.1%
viability, T/C (second compound 10 µM, first compound 0.01 µM): 19.3%
viability, T/C (second compound 10 µM, first compound 0.0316 µM): 19.5%
viability, T/C (second compound 10 µM, first compound 0.1 µM): 8.39%

O=C(c1ccc(F)c(F)c1Nc1ccc(I)cc1F)N1CC(O)([C@@H]2CCCCN2)C1 + CCn1c(-c2cc(N3CCN(C)CC3)cnc2C(C)OC)c2c3cc(ccc31)-c1csc(n1)CC(NC(=O)C1CC1C)C(=O)N1CCCC(N1)C(=O)OCC(C)(C)C2
IC50 (second compound 0.000949 µM): < 3.16 nM
IC50 (second compound 0.003 µM): < 3.16 nM
IC50 (second compound 0.00949 µM): < 3.16 nM
IC50 (second compound 0.03 µM): < 3.16 nM
IC50 (second compound 0.0949 µM): < 3.16 nM
IC50 (second compound 0.3 µM): < 3.16 nM
viability, T/C [1]: 44.4%
viability, T/C [2]: 36.8%
viability, T/C [3]: 16.1%
viability, T/C [4]: 14.3%
viability, T/C [5]: 7.06%
viability, T/C [6]: 3.12%
viability, T/C [7]: 20.1%
viability, T/C [8]: 12.8%
viability, T/C [9]: 8.83%
viability, T/C [10]: 4.83%
viability, T/C [11]: 3.13%
viability, T/C [12]: 1.88%
viability, T/C [13]: 12.8%
viability, T/C [14]: 20.7%
viability, T/C [15]: 3.97%
viability, T/C [16]: 3.06%
viability, T/C [17]: 1.18%
viability, T/C [18]: 1.4%
viability, T/C [19]: 3.31%
viability, T/C [20]: 1.65%
viability, T/C [21]: 2.04%
viability, T/C [22]: 1.29%
viability, T/C [23]: 1.25%
viability, T/C [24]: 0.85%
viability, T/C [25]: 2.17%
viability, T/C [26]: 1.59%
viability, T/C [27]: 1.36%
viability, T/C [28]: 0.82%
viability, T/C [29]: 0.8%
viability, T/C [30]: 0.95%
viability, T/C [31]: 2.23%
viability, T/C [32]: 1.56%
viability, T/C [33]: 1.42%
viability, T/C [34]: 0.74%
viability, T/C [35]: 0.89%
viability, T/C [36]: 0.77%
